# Results published in patent US20260139241A1, “METHOD FOR CONSTRUCTING SENESCENT CELLSAND METHOD FOR EVALUATING ANTI-SENESCENCE EFFICACY” (JAKA BIOTECH Co,.Ltd., priority 2022, published 2026).
# Columns and labels:
# [1] = test system: endogenously senescent human primary fibroblasts (P4, P7, P9, P12 passage cells); assay: Anti-aging efficacy evaluation of VC on endogenously senescent (naturally senescent) cells, proliferation-promoting effect (ATP detection); type: cell-based; conditions: endogenous senescence, 10 ug/mL VC, 48 h
# Description: […]
# [2] = test system: exogenously senescent human primary fibroblasts (UVA-P4, UVA-P7, UVA-P9 passage cells); assay: Anti-aging efficacy evaluation of VC on exogenously senescent (light aging) cells, proliferation-promoting effect (ATP detection); type: cell-based; conditions: exogenous senescence (light aging), 10 ug/mL VC, 48 h
# Description: […]
smiles,measurement,setting,value
O=C1O[C@H]([C@@H](O)CO)C(O)=C1O [VC],proliferation-promoting effect,[1]; early-stage senescent cells (P7),relatively poor proliferation-promoting effect
same,proliferation-promoting effect,[1]; growth-stage cells (P4),relatively significant proliferation-promoting effect
same,proliferation-promoting effect,[1]; late-stage senescent cells (P12),basically no proliferation-promoting effect
same,proliferation-promoting effect,[1]; middle-stage senescent cells (P9),basically no proliferation-promoting effect
same,proliferation-promoting effect,[2]; early-stage senescent cells (UVA-P4),relatively significant proliferation-promoting effect
same,proliferation-promoting effect,[2]; late-stage senescent cells (UVA-P9),no proliferation-promoting effect
same,proliferation-promoting effect,[2]; middle-stage senescent cells (UVA-P7),relatively poor proliferation-promoting effect
